Structures are written as SMILES. Like-named read-outs stand apart in the source and are kept apart here.

One may read the Ki as the dissociation constant of the complex between target and ligand, obtained from inhibition or displacement. A higher Ki goes with lower affinity. The term IC50 denotes the midpoint of a concentration-inhibition curve.

One data set addresses T1, CYP2C9 (Homo sapiens, UniProt P11712).
T1 construct: using pooled human liver microsomes; tissue BD Gentest Co. H161; host or cells: pooled human liver microsomes
Put plainly: CYP2C9 diclofenac 4-hydroxylation inhibition in pooled human liver microsomes. The data set is classed as in vitro ADME. The settings on record: for IC50: 10 μM diclofenac, mean ± SD, n = 3. The method, then: (§1) Phenacetin O-deethylase, coumarin 7-hydroxylase, amodiaquine N-deethylase, diclofenac 4-hydroxylase, S-mephenytoin 4-hydroxylase, bufuralol hydroxylase, and midazolam 1’-hydroxylase activities were determined as probe activities for CYP1A2, CYP2A6, CYP2C8, CYP2C9, CYP2C19, CYP2D6, and CYP3A4, respectively, using cocktail incubation and liquid chromatography-tandem mass spectrometry (LC/MS/MS). The incubation mixtures were prepared in a total volume of 200 μL, as follows: pooled human liver microsomes (0.25 mg/mL), 1.3 mM NADPH, 3.3 mM MgCl2, 50 mM potassium phosphate buffer (pH 7.4), and a cocktail of probe substrates and various concentrations of corydaline (1−200 μM). The substrates were used at concentrations approximately equal to their respective Km values: 50 μM phenacetin, 2.5 μM coumarin, 2.5 μM amodiaquine, 10 μM diclofenac, 100 μM S-mephenytoin, 5 μM bufuralol, and 2.5 μM midazolam. After a 3-min pre-incubation period at 37 °C, the reactions were initiated by addition of an NADP generating system and incubated for 20 min at 37 °C in a shaking water bath. After incubation, the reaction was stopped by placement of the tubes on ice and addition of 100 μL of ice-cold methanol containing internal standards (^13C2,^15N-acetaminophen for acetaminophen and N-desethylamodiaquine, d5-7-hydroxycoumarin for 7-hydroxycoumarin, ^13C6-4-hydroxydiclofenac for 4-hydroxydiclofenac, d3-4-hydroxy-mephenytoin for 4-hydroxymephenytoin and hydroxymidazolam, d9-1-hydroxybufuralol for 1-hydroxybufuralol). The incubation mixtures were then centrifuged at 13,000 × g for 5 min. All incubations were performed in triplicate and the mean values were used. […] The reaction was started by addition of a cocktail of CYP probe substrates.
(§2) All 7 metabolites produced from the cocktail of CYP isoform-specific substrates were simultaneously determined by LC/MS/MS [25]. The system consisted of a tandem quadrupole mass spectrometer (TSQ Quantum Access, ThermoFisher Scientific, San Jose, CA, USA) coupled with a Nanospace SI-2 LC system. Separation was performed on an Atlantis dC18 column (5 μm, 2.1 mm i.d. ×100 mm, Waters, Milford, MA, USA) using the gradient elution of a mixture of 5% methanol in 0.1% formic acid (mobile phase A) and 95% methanol in 0.1% formic acid (mobile phase B) at a flow rate of 0.25 mL/min: 10% mobile phase B for 1 min, 10% to 95% mobile phase B for 1 min, 95% mobile phase B for 5 min. The column and autosampler temperatures were 50 and 6 °C, respectively. After 1.5 min, the LC eluent was diverted from waste to the mass spectrometer fitted with the electrospray ionization (ESI) source and operated in positive ion mode. […] Quantification was performed by selected reaction monitoring (SRM) of the [M+H]^+ ion and the related product ion for each metabolite. […]
(§3) Reactions were initiated by addition of NADPH at 37 °C and stopped after 15 min by placement of the incubation tubes on ice and addition of ice-cold methanol (100 μL) containing an internal standard (2.0 μg/mL ^13C6-4-hydroxydiclofenac for diclofenac, 0.5 μg/mL d3-4-hydroxymephenytoin for mephenytoin, or 0.5 μg/mL d9-1-hydroxy-bufuralol for bufuralol). The incubation mixtures were centrifuged at 13,000 × g for 5 min, and aliquots (5 μL) of the supernatants were analyzed by LC/MS/MS. […] Aliquots (5 μL) were analyzed by LC/MS/MS. […]

In the next data set the target is T2, CYP2D6 (Homo sapiens, UniProt P10635).
T2 construct: using pooled human liver microsomes; tissue BD Gentest Co. H161; host or cells: pooled human liver microsomes
T2 sequence (P10635 whole entry): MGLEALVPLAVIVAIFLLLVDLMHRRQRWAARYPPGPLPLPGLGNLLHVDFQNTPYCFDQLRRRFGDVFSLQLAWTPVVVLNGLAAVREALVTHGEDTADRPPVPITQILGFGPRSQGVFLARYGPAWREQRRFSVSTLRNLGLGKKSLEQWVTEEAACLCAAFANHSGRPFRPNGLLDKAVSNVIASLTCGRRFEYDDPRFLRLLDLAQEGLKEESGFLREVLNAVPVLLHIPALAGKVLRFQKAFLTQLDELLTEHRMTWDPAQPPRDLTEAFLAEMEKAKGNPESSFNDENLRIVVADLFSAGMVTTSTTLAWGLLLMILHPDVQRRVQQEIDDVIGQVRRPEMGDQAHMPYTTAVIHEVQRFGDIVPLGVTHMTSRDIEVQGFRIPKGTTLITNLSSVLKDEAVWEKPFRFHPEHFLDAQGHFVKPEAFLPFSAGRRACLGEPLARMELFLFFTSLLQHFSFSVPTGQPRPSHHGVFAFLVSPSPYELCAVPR
Put plainly: CYP2D6 bufuralol 1'-hydroxylation inhibition in pooled human liver microsomes. The settings on record: for inhibition mode, CYP2D6 bufuralol 1'-hydroxylation: Lineweaver, Dixon and secondary reciprocal plots; for IC50: 5.0 μM bufuralol, mean ± SD, n = 3. It counts as in vitro ADME. As for the experimental part:
as §1, §2, §3
For orientation: Liver microsomes are vesicles of endoplasmic reticulum, rich in cytochrome P450 enzymes.

T1 sequence (P11712 whole entry): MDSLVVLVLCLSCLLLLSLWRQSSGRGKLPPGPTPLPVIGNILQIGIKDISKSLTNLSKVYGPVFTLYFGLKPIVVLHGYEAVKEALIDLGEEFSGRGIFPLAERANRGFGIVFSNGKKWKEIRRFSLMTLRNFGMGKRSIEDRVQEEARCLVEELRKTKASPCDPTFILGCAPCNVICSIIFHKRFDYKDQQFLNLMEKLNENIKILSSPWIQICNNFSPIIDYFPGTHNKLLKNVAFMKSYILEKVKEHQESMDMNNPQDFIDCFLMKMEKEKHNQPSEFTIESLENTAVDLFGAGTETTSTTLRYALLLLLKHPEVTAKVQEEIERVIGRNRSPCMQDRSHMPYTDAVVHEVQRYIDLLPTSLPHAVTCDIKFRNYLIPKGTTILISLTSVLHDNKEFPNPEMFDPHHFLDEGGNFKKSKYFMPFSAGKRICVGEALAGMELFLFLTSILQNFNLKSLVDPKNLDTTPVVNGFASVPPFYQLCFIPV

With `COc1cc2c(cc1OC)C1C(C)c3ccc(OC)c(OC)c3CN1CC2` (stereo not shown) [Corydaline, 2,3,9,10-tetramethoxy-13-methyl-5,8,13,13a-tetrahydro-6H-isoquino[3,2-a]isoquinoline], the “inhibition mode, CYP2C9 diclofenac 4-hydroxylation” value on CYP2C9 (Lineweaver, Dixon and secondary reciprocal plots) was “noncompetitive”. The Ki on CYP2C9 (human liver microsomes, 1-10 μM diclofenac) is 7.1 ± 0.4 µM; on CYP2D6 (human liver microsomes, 0.5-5 μM bufuralol) it was 27.3 ± 0.7 µM. In addition, the inhibitory constant (Ki) at 15 min at CYP2C9 (pH 7.4, probe diclofenac (1-10 μM), 4-hydroxylation, human liver microsomes, 1-10 μM diclofenac) was 7 µM. For the same compound, the 50% inhibitory concentration (IC50) on CYP2C9 (pooled human liver microsomes (H161), read-out: IC50 no preincubation, CYP2C9 diclofenac 4-hydroxylation) was determined as 26.2 ± 4.6 µM; on CYP2C9 (pre-incubated 30 min with NADPH, read-out: IC50 with preincubation, CYP2C9 diclofenac 4-hydroxylation), 30.6 ± 4.1 µM; at CYP2D6 (pooled human liver microsomes (H161), read-out: IC50 no preincubation, CYP2D6 bufuralol 1'-hydroxylation), 64.5 ± 9.8 µM; at CYP2D6 (pre-incubated 30 min with NADPH, read-out: IC50 with preincubation, CYP2D6 bufuralol 1'-hydroxylation), 116 ± 7.6 µM. The results for the “inhibition mode, CYP2D6 bufuralol 1'-hydroxylation” value on CYP2D6 and on CYP2D6 (listed as corydaline) were “competitively” and “competitive”, respectively.

These data come from paper PMC6264278, “Corydaline Inhibits Multiple Cytochrome P450 and UDP-Glucuronosyltransferase Enzyme Activities in Human Liver Microsomes” (Molecules, 2011).
